Columns and labels:
KRAS-G12D = KRAS-G12D (Homo sapiens, UniProt P01116, G12D); experiment: SOS-catalyzed nucleotide exchange assay (Procedure A, TR-FRET), KRAS-G12D; type: biochemical; settings: nucleotide exchange, read-out: KRAS G12D GNE IC50
Outline: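 Signal ratio (520/495 nm, excitation 340 nm) reports Bodipy-GDP retention on biotinylated RAS after SOS-catalyzed exchange with 3 mM GTP. SOS was 40 nM, except 160 nM for G12V. Room-temperature exchange lasted 60 min (90 min for G12V), following a 60 min compound preincubation.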

[1] = biological target: KRAS-G12C (C51S/C80L/C118S) (Homo sapiens, UniProt P01116, C118S/C51S/C80L/G12C); experiment: SOS-catalyzed nucleotide exchange assay (Procedure A, TR-FRET), KRAS-G12C; type: biochemical; settings: nucleotide exchange, Procedure A; read-out: KRAS G12C GNE IC50
Outline: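 Biotinylated RAS (KRAS-G12C carries C51S/C80L/C118S; others WT background) preloaded with Bodipy-GDP plus Tb-streptavidin, preincubated with compound 60 min at RT, then human SOS and 3 mM GTP added. Final RAS/SOS: G12C 3 nM/40 nM, 60 min; WT 1 nM/40 nM, 60 min; G12V 1.25 nM/160 nM, 90 min; NRAS 1.25 nM/40 nM, 60 min. TR-FRET 520/495 ratio normalized to DMSO and saturating inhibitor; 10-point curves fit four-parameter logistic.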

AsPC-1 cells = experiment: Cellular phospho-ERK assay, AsPC-1 cells (homozygous KRAS-G12D); type: cell-based; settings: Homo sapiens, ASPC1, 2 h, KRAS-G12D, 2 hours, read-out: AsPC1 pERK IC50
Outline: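 p-ERK/total ERK ratio, measured by AlphaLISA SureFire Ultra multiplex in lysates, was fitted to a 4-parameter logistic model for IC50. Compound exposure was 2 h at 37° C, 5% CO2, 10-point 1:3 dilutions from 30 μM final, on cells plated the previous night.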

KRAS-G12C (C51S/C80L/C118S), sequence (P01116 with tags, fused parts or gaps isoform P01116-2 G12C/C51S/C80L/C118S): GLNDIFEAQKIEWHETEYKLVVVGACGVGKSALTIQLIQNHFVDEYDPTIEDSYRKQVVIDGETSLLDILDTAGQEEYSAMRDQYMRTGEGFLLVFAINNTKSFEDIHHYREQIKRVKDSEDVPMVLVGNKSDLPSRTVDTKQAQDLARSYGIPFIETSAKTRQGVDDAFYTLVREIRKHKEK
KRAS-G12D, sequence (P01116 with tags, fused parts or gaps isoform P01116-2 G12D): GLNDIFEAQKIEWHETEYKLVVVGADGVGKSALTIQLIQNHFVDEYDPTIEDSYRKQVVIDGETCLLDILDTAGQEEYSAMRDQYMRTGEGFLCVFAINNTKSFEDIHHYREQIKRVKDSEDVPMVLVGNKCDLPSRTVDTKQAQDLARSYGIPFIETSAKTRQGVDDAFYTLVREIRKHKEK

SMILES: C#Cc1c(F)ccc2cc(O)cc(-c3nccc4c5c(N6CCOC[C@@](C)(O)C6)nc(OC[C@@]67CCCN6C[C@H](F)C7)nc5n(C)c34)c12 [Ex-18, (S)-4-(8-(8-ethynyl-7-fluoro-3-hydroxynaphthalen-1-yl)-2-(((2R,7aS)-2-fluorotetrahydro-1H-pyrrolizin-7a(5H)-yl)methoxy)-9-methyl-9H-pyrido[4′,3′:4,5]pyrrolo[2,3-d]pyrimidin-4-yl)-6-methyl-1,4-oxazepan-6-ol]
- IC50 (KRAS-G12D): 1.15 nM
- IC50 [1]: 10.5 nM
- IC50 (AsPC-1 cells): 29.8 nM

Source: patent US20260176289A1, “SMALL MOLECULE INHIBITORS OF KRAS PROTEINS” (Merck Sharp & Dohme LLC, priority 2022, published 2026)
